Experimental data: the CheMixHub drug solubility set

Experiment: xn = mol fraction of the nth substance listed, in the solute-free solvent

O=C(O)CC(O)C(=O)O (stereo not drawn) + C1CCOC1 + CC#N
solubility (g/100 g solution)
Conditions	278.15 K	283.15 K	288.15 K	293.15 K	298.15 K	303.15 K	308.15 K	313.15 K	318.15 K	323.15 K
x2 = 0.1246	19.5	21.2	23.2	25.3	26.9	29.2	31.6	34.1	36.6	39.6
x2 = 0.1961	27.1	28.6	30.5	32.5	34.7	37.1	39.2	41.7	44.3	47
x2 = 0.2751	29.8	32	34	36	38	40.2	42.3	45	47.2	49.9
x2 = 0.3628	33.2	34.9	36.9	38.9	40.9	43	45.1	47.7	49.9	52.5
x2 = 0.4606	34.6	36	37.8	39.7	41.5	43.5	45.9	48.1	50.5	53.4
x2 = 0.5705	35.7	37.3	39.1	41.1	43.2	45.5	47.8	50.2	52.9	55.6
x2 = 0.6949	37.8	39	40.6	42.3	44.3	46	48.3	50.3	52.7	55.5

Cc1c(Br)cccc1C(=O)O + C1CCOC1 + CCOC(C)=O
solubility (g/100 g solution)
Conditions	x2 = 0.161	x2 = 0.318	x2 = 0.471	x2 = 0.62	x2 = 0.765	x2 = 0.907
278.15 K	11.6	16.7	21.6	26.2	30	35
283.15 K	12.9	18.1	23.4	28.1	32	37.2
288.15 K	14.2	19.7	24.9	29.9	33.8	39.1
293.15 K	15.4	21.3	26.6	31.7	35.6	41.2
298.15 K	16.9	22.7	28.2	33.4	37.3	43
303.15 K	18.3	24.4	30	35.3	39	44.9
308.15 K	19.8	26	31.6	36.9	40.6	46.5
313.15 K	21.6	27.6	33.3	38.6	42.1	48.1
318.15 K	23.4	29.4	35.1	40.2	43.6	49.6
323.15 K	25.3	31.3	36.7	41.8	44.9	51.1
328.15 K	27.6	33.3	38.5	43.6	46.2	52.5

O=C(O)CC(O)C(=O)O (stereo not drawn) + C1CCOC1 + CCOC(C)=O
solubility (g/100 g solution)
Conditions	278.15 K	283.15 K	288.15 K	293.15 K	298.15 K	303.15 K	308.15 K	313.15 K	318.15 K	323.15 K
x2 = 0.234	9.32	10.1	11	12	13.2	14.4	15.8	17.2	18.6	20.4
x2 = 0.3437	13.6	14.7	15.9	17.2	18.7	20.4	22.1	24	26.1	28.7
x2 = 0.4489	19.3	20.5	21.8	23.2	24.7	26.3	27.9	29.9	31.9	34.2
x2 = 0.55	24.6	26	27.6	29	30.8	32.7	34.6	36.6	39.2	41.8
x2 = 0.647	27.6	28.9	30.5	32.2	34.2	36.3	38.4	40.8	43.5	46.4
x2 = 0.7403	30.1	31.8	33.3	34.9	36.9	38.8	40.9	43.3	46	48.7
x2 = 0.8302	34.8	36	37.7	39	40.7	42.6	44.4	46.4	48.7	51.4

CN1CCN(C2=Nc3cc(Cl)ccc3Nc3ccccc32)CC1 + C1CCOC1 + Cc1ccccc1
solubility (g/100 g solution)
Conditions	x2 = 0.1243	x2 = 0.242	x2 = 0.3539	x2 = 0.4601	x2 = 0.5602	x2 = 0.6569	x2 = 0.749	x2 = 0.8361	x2 = 0.9197
293.15 K	3.93	5.65	8.04	9.98	13	15.3	17.5	20.9	23.9
298.15 K	4.3	6.76	8.83	11.7	14.2	16.5	20.5	22.2	25.6
303.15 K	5.04	7.34	9.84	13.1	15.8	18.8	21.9	25	28.1
308.15 K	6.11	8.39	11.2	14.4	17.5	20.6	24	26	29.8
313.15 K	7.2	9.63	12.2	16.4	19.5	22.7	25.9	29	31.9
318.15 K	8.19	10.7	14.6	18.1	21.4	24.9	27.9	30.5	33.7
323.15 K	8.82	12.2	15.9	20.1	23.6	27	29.6	33.1	36.6

CC(=O)N1CCN(c2ccc(OCC3COC(Cn4ccnc4)(c4ccc(Cl)cc4Cl)O3)cc2)CC1 (stereo not drawn) + C1COCCO1 + O
solubility (g/100 g solution)
Conditions	x2 = 0.02222	x2 = 0.04865	x2 = 0.0806	x2 = 0.12	x2 = 0.1698	x2 = 0.2348	x2 = 0.3231	x2 = 0.45	x2 = 0.648
293.15 K	0.00759	0.0327	0.155	0.537	2.07	6.72	16.6	22.9	18.7
298.15 K	0.00818	0.0386	0.171	0.692	2.58	8.67	18.8	25.4	20.6
303.15 K	0.00845	0.0485	0.197	0.87	3.25	10.9	21.1	27.8	22.6
308.15 K	0.00894	0.0594	0.216	1.04	4.24	13.4	24.4	29.9	24.3
313.15 K	0.00948	0.07	0.25	1.3	5.11	16	27.2	32.5	26.7

O=C(O)CC(O)C(=O)O (stereo not drawn) + CC#N + CCCCOC(C)=O
solubility (g/100 g solution)
Conditions	278.15 K	283.15 K	288.15 K	293.15 K	298.15 K	303.15 K	308.15 K	313.15 K	318.15 K	323.15 K
x2 = 0.4143	1.23	1.39	1.63	1.79	2.06	2.36	2.73	3.15	3.71	4.37
x2 = 0.5481	1.54	1.77	2.1	2.45	2.86	3.39	3.96	4.62	5.41	6.44
x2 = 0.6535	2.05	2.38	2.8	3.32	3.93	4.61	5.48	6.51	7.78	9.24
x2 = 0.7389	2.71	3.15	3.56	4.05	4.88	5.66	6.77	7.85	9.29	11.2
x2 = 0.8093	3.25	3.73	4.29	4.93	5.81	6.58	7.95	9.34	10.9	13.2
x2 = 0.8685	3.84	4.31	4.89	5.73	6.8	8.05	9.49	11.3	13.5	15.8
x2 = 0.9188	4.19	4.92	5.74	6.72	8.05	9.62	11.4	13.7	16.4	19.4

CN1CCN(C2=Nc3cc(Cl)ccc3Nc3ccccc32)CC1 + CC#N + O
solubility (g/100 g solution)
Conditions	x2 = 0.04651	x2 = 0.0989	x2 = 0.1583	x2 = 0.2264	x2 = 0.3051	x2 = 0.397	x2 = 0.506	x2 = 0.6372	x2 = 0.798
278.15 K	0.00519	0.0208	0.0473	0.113	0.207	0.366	0.609	0.903	1.23
283.15 K	0.00691	0.0265	0.0589	0.138	0.248	0.431	0.707	1.04	1.39
288.15 K	0.00905	0.034	0.0735	0.168	0.296	0.507	0.817	1.18	1.55
293.15 K	0.0119	0.0432	0.0905	0.2	0.347	0.589	0.938	1.34	1.73
298.15 K	0.0151	0.0532	0.111	0.238	0.41	0.682	1.08	1.5	1.95
303.15 K	0.0193	0.0662	0.135	0.283	0.481	0.794	1.22	1.7	2.16
308.15 K	0.0247	0.0831	0.164	0.336	0.558	0.91	1.39	1.92	2.39
313.15 K	0.0308	0.101	0.197	0.398	0.642	1.05	1.56	2.11	2.64
318.15 K	0.0384	0.123	0.233	0.465	0.746	1.19	1.75	2.37	2.91
323.15 K	0.0473	0.15	0.281	0.542	0.855	1.35	1.96	2.63	3.2
328.15 K	0.059	0.178	0.335	0.625	0.985	1.53	2.18	2.9	3.49
